Measured values taken from patent publication US8148391B2 (Cephalon, Inc., priority 2006, dated 2012).

Experiments:
[1] = biological target: T1, baculovirus-expressed ALK (Homo sapiens, UniProt Q9UM73); assay: ALK Kinase Assay (ELISA-type, time-resolved fluorescence); assay type: biochemical; conditions: 1 μM ATP (Km level); read-out: ALK Activity (ALK Kinase Inhibition, IC50)
T1 construct: host or cells: baculovirus expression system
In short: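 Substrate coating: phospholipase C-γ, 10 μg/mL in TBS. Kinase step: 30 ng/ml ALK, 15 min, 37° C. Detection and analysis: Eu-N1 PT66 antibody, with IC50 fitted as a sigmoidal variable-slope dose-response curve.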

[2] = biological target: T2, c-Met (cytoplasmic domain) (Homo sapiens, UniProt P08581); assay: c-Met Kinase Assay (same methods as for ALK, with modifications); assay type: biochemical; conditions: 1 μM ATP (Km level); read-out: cMet Activity (c-Met Kinase Inhibition, IC50)
T2 construct: 10 ng/mL c-Met (cytoplasmic domain, Invitrogen Corporation #PV3143); purchased Invitrogen Corporation PV3143
T2 sequence (P08581 956-1390 limits assumed): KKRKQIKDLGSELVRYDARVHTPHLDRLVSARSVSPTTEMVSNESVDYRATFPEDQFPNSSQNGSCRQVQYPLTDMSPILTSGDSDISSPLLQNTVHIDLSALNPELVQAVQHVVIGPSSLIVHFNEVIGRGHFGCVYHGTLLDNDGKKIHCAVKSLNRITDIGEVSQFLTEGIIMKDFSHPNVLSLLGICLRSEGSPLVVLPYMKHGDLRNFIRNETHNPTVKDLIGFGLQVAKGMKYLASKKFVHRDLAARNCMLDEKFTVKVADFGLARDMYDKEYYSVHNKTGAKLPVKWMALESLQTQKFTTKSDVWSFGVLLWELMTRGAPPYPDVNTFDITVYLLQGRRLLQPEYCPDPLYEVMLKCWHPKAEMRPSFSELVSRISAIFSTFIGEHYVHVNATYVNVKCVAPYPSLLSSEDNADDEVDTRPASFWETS
In short: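 This plate-based kinase format uses immobilized phospholipase C-γ as substrate, phosphorylated by c-Met cytoplasmic domain (10 ng/mL) at 37° C for 15 minutes.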

T1 sequence (Q9UM73 19-1620): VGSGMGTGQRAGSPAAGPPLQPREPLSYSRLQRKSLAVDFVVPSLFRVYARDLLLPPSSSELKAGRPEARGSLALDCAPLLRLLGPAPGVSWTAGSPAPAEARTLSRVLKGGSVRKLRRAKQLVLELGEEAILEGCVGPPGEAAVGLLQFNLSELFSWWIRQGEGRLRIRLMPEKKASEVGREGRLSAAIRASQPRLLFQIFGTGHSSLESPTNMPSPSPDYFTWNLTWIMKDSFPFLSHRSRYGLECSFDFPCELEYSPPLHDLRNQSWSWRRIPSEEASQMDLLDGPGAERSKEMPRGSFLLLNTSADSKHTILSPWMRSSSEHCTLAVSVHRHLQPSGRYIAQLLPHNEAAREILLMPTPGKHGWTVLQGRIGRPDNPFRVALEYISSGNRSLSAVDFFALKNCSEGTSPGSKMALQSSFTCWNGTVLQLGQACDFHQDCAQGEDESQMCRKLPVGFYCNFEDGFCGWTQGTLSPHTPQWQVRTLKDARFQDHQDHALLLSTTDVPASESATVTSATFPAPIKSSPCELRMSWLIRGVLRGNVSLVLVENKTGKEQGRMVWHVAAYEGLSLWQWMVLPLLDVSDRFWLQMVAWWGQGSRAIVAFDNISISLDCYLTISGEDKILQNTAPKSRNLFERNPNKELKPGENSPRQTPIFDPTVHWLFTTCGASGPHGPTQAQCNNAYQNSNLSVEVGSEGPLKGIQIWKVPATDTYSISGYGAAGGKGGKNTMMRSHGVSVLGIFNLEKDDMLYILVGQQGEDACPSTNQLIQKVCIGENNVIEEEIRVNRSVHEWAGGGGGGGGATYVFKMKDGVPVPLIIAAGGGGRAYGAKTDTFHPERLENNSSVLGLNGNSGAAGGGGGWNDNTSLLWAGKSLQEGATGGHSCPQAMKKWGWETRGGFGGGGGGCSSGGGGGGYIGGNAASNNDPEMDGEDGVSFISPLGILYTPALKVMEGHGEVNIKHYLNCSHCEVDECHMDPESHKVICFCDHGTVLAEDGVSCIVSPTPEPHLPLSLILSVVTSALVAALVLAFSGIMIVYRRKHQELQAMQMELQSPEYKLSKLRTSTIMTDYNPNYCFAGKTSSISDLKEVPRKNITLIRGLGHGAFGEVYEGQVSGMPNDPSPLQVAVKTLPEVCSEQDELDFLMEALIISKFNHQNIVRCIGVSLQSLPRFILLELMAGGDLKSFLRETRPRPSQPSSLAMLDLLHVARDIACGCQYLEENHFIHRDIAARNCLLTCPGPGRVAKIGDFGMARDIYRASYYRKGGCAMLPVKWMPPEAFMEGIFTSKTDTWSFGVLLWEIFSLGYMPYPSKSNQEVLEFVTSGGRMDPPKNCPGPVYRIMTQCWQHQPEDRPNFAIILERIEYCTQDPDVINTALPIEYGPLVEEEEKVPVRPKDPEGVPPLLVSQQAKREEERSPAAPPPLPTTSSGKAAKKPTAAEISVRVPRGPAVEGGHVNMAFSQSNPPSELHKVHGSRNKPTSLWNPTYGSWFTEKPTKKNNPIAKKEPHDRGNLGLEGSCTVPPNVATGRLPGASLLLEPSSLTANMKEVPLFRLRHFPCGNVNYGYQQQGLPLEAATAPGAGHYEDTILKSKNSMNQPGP

Structure (SMILES)	IC50 [1]	IC50 [2]
COc1cc2c(cc1Nc1ncc(Cl)c(Nc3ccc(F)cc3S(=O)(=O)N(C)C)n1)CCN(CC(=O)N(C)C)CC2 [Example 831, 2-{7-[5-Chloro-4-(2-dimethylsulfamoyl-4-fluoro-phenylamino)-pyrimidin-2-ylamino]-8-methoxy-1,2,4,5-tetrahydro-benzo[d]azepin-3-yl}-N,N-dimethyl-acetamide]	< 0.1 µM	> 10 µM
COc1cc2c(cc1Nc1ncc(Cl)c(Nc3ccc(Cl)cc3S(=O)(=O)N(C)C)n1)CCN(CC(=O)N(C)C)CC2 [Example 832, 2-{7-[5-Chloro-4-(4-chloro-2-dimethylsulfamoyl-phenylamino)-pyrimidin-2-ylamino]-8-methoxy-1,2,4,5-tetrahydro-benzo[d]azepin-3-yl}-N,N-dimethyl-acetamide]	< 0.1 µM	> 10 µM
COc1cc2c(cc1Nc1ncc(Cl)c(Nc3ccc(N(C)C)cc3S(=O)(=O)N(C)C)n1)CCN(CC(=O)N(C)C)CC2 [Example 833, 2-{7-[5-Chloro-4-(4-dimethylamino-2-dimethylsulfamoyl-phenylamino)-pyrimidin-2-ylamino]-8-methoxy-1,2,4,5-tetrahydro-benzo[d]azepin-3-yl}-N,N-dimethyl-acetamide]	< 0.1 µM	> 10 µM
COc1cc2c(cc1Nc1ncc(Cl)c(Nc3ccc(N4CCOCC4)cc3S(=O)(=O)N(C)C)n1)CCN(CC(=O)N(C)C)CC2 [Example 834, 2-{7-[5-Chloro-4-(2-dimethylsulfamoyl-4-morpholin-4-yl-phenylamino)-pyrimidin-2-ylamino]-8-methoxy-1,2,4,5-tetrahydro-benzo[d]azepin-3-yl}-N,N-dimethyl-acetamide]	< 0.1 µM	> 10 µM
COc1cc2c(cc1Nc1ncc(Cl)c(Nc3ccc(N4CCN(C5CCN(C)CC5)CC4)cc3OC)n1)CCN(CC(=O)N(C)C)CC2 [Example 835, 2-[7-(5-Chloro-4-{2-methoxy-4-[4-(1-methyl-piperidin-4-yl)-piperazin-1-yl]-phenylamino}-pyrimidin-2-ylamino)-8-methoxy-1,2,4,5-tetrahydro-benzo[d]azepin-3-yl]-N,N-dimethyl-acetamide]	< 0.1 µM	> 10 µM
COc1cc2c(cc1Nc1ncc(Cl)c(Nc3ccccc3S(=O)(=O)N3CCOCC3)n1)CCN(CC(=O)N(C)C)CC2 [Example 836, 2-(7-{5-Chloro-4-[2-(morpholine-4-sulfonyl)-phenylamino]-pyrimidin-2-ylamino}-8-methoxy-1,2,4,5-tetrahydro-benzo[d]azepin-3-yl)-N,N-dimethyl-acetamide]	< 0.1 µM	> 10 µM
COc1cc2c(cc1Nc1ncc(Cl)c(Nc3ccccc3S(=O)(=O)N3CCN(C)CC3)n1)CCN(CC(=O)N(C)C)CC2 [Example 837, 2-(7-{5-Chloro-4-[2-(4-methyl-piperazine-1-sulfonyl)-phenylamino]-pyrimidin-2-ylamino}-8-methoxy-1,2,4,5-tetrahydro-benzo[d]azepin-3-yl)-N,N-dimethyl-acetamide]	< 0.1 µM	> 10 µM
COCC(COC)N1CCc2cc(Nc3ncc(Cl)c(Nc4ccc(Cl)cc4S(=O)(=O)N(C)C)n3)c(OC)cc2CC1 [Example 838, 5-Chloro-2-{5-chloro-2-[8-methoxy-3-(2-methoxy-1-methoxymethyl-ethyl)-2,3,4,5-tetrahydro-1H-benzo[d]azepin-7-ylamino]-pyrimidin-4-ylamino}-N,N-dimethyl-benzenesulfonamide]	< 0.1 µM	> 10 µM
COCCN1CCc2cc(Nc3ncc(Cl)c(Nc4ccc(Cl)cc4S(=O)(=O)N(C)C)n3)c(OC)cc2CC1 [Example 839, 5-Chloro-2-{5-chloro-2-[8-methoxy-3-(2-methoxy-ethyl)-2,3,4,5-tetrahydro-1H-benzo[d]azepin-7-ylamino]-pyrimidin-4-ylamino}-N,N-dimethyl-benzenesulfonamide]	< 0.1 µM	> 10 µM
COc1cc2c(cc1Nc1ncc(Cl)c(Nc3ccc(Cl)cc3S(=O)(=O)N(C)C)n1)CCN(CCO)CC2 [Example 840, 5-Chloro-2-{5-chloro-2-[3-(2-hydroxy-ethyl)-8-methoxy-2,3,4,5-tetrahydro-1H-benzo[d]azepin-7-ylamino]-pyrimidin-4-ylamino}-N,N-dimethyl-benzenesulfonamide]	< 0.1 µM	> 10 µM
COc1cc2c(cc1Nc1ncc(Cl)c(Nc3ccc(Cl)cc3S(=O)(=O)N(C)C)n1)CCN(CC(=O)N1CCOCC1)CC2 [Example 841, 5-Chloro-2-{5-chloro-2-[8-methoxy-3-(2-morpholin-4-yl-2-oxo-ethyl)-2,3,4,5-tetrahydro-1H-benzo[d]azepin-7-ylamino]-pyrimidin-4-ylamino}-N,N-dimethyl-benzenesulfonamide]	< 0.1 µM	> 10 µM
COc1cc2c(cc1Nc1ncc(Cl)c(Nc3ccc(Cl)cc3S(=O)(=O)N(C)C)n1)CCN(CC(=O)N1CCN(C)CC1)CC2 [Example 842, 5-Chloro-2-(5-chloro-2-{8-methoxy-3-[2-(4-methyl-piperazin-1-yl)-2-oxo-ethyl]-2,3,4,5-tetrahydro-1H-benzo[d]azepin-7-ylamino}-pyrimidin-4-ylamino)-N,N-dimethyl-benzenesulfonamide]	< 0.1 µM	> 10 µM
COc1cc2c(cc1Nc1ncc(Cl)c(Nc3ccc(C(F)(F)F)cc3S(=O)(=O)N(C)C)n1)CCN(CC(=O)N(C)C)CC2 [Example 843, 2-{7-[5-Chloro-4-(2-dimethylsulfamoyl-4-trifluoromethyl-phenylamino)-pyrimidin-2-ylamino]-8-methoxy-1,2,4,5-tetrahydro-benzo[d]azepin-3-yl}-N,N-dimethyl-acetamide]	< 0.1 µM	> 10 µM
COCC(COC)N1CCc2cc(Nc3ncc(Cl)c(Nc4ccccc4S(=O)(=O)N4CCCC4)n3)c(OC)cc2CC1 [Example 844, 5-Chloro-N*2*-[8-methoxy-3-(2-methoxy-1-methoxymethyl-ethyl)-2,3,4,5-tetrahydro-1H-benzo[d]azepin-7-yl]-N*4*-[2-(pyrrolidine-1-sulfonyl)-phenyl]-pyrimidine-2,4-diamine]	< 0.1 µM	1 to 10 µM
COc1cc2c(cc1Nc1ncc(Cl)c(Nc3ccccc3S(=O)(=O)N3CC[C@@H](N(C)C)C3)n1)CCN(CC(=O)N(C)C)CC2 [Example 845, 2-(7-{5-Chloro-4-[2-((R)-3-dimethylamino-pyrrolidine-1-sulfonyl)-phenylamino]-pyrimidin-2-ylamino}-8-methoxy-1,2,4,5-tetrahydro-benzo[d]azepin-3-yl)-N,N-dimethyl-acetamide]	< 0.1 µM	> 10 µM
COc1cc2c(cc1Nc1ncc(Cl)c(Nc3ccccc3S(=O)(=O)N3CC[C@H](N(C)C)C3)n1)CCN(CC(=O)N(C)C)CC2 [Example 846, 2-(7-{5-Chloro-4-[2-((S)-3-dimethylamino-pyrrolidine-1-sulfonyl)-phenylamino]-pyrimidin-2-ylamino}-8-methoxy-1,2,4,5-tetrahydro-benzo[d]azepin-3-yl)-N,N-dimethyl-acetamide]	< 0.1 µM	> 10 µM
COc1cc2c(cc1Nc1ncc(Cl)c(NC3(CC(N)=O)CCCCC3)n1)CCN(CC(=O)N(C)C)CC2 [Example 847, 2-{1-[5-Chloro-2-(3-dimethylcarbamoylmethyl-8-methoxy-2,3,4,5-tetrahydro-1H-benzo[d]azepin-7-ylamino)-pyrimidin-4-ylamino]-cyclohexyl}-acetamide]	0.1 to 1 µM	> 10 µM
COCC(COC)N1CCc2cc(Nc3ncc(Cl)c(NC4(CC(N)=O)CCCCC4)n3)c(OC)cc2CC1 [Example 848, 2-(1-{5-Chloro-2-[8-methoxy-3-(2-methoxy-1-methoxymethyl-ethyl)-2,3,4,5-tetrahydro-1H-benzo[d]azepin-7-ylamino]-pyrimidin-4-ylamino}-cyclohexyl)-acetamide]	0.1 to 1 µM	> 10 µM
COc1cc2c(cc1Nc1ncc(Cl)c(NC3(CC(N)=O)CCCCC3)n1)CCN(CCO)CC2 [Example 849, 2-(1-{5-Chloro-2-[3-(2-hydroxy-ethyl)-8-methoxy-2,3,4,5-tetrahydro-1H-benzo[d]azepin-7-ylamino]-pyrimidin-4-ylamino}-cyclohexyl)-acetamide]	< 0.1 µM	> 10 µM
CCN1C(=O)CCC(C)(C)c2ccc(Nc3ncc(Cl)c(Nc4ccc(N(C)C)cc4S(=O)(=O)N(C)C)n3)cc21 [Example 850, 2-[5-Chloro-2-(1-ethyl-5,5-dimethyl-2-oxo-2,3,4,5-tetrahydro-1H-benzo[b]azepin-8-ylamino)-pyrimidin-4-ylamino]-5-dimethylamino-N,N-dimethyl-benzenesulfonamide]	< 0.1 µM	0.1 to 1 µM
CCN1C(=O)CCC(C)(C)c2ccc(Nc3ncc(Cl)c(Nc4ccc(N5CCOCC5)cc4S(=O)(=O)N(C)C)n3)cc21 [Example 851, 2-[5-Chloro-2-(1-ethyl-5,5-dimethyl-2-oxo-2,3,4,5-tetrahydro-1H-benzo[b]azepin-8-ylamino)-pyrimidin-4-ylamino]-N,N-dimethyl-5-morpholin-4-yl-benzenesulfonamide]	< 0.1 µM	1 to 10 µM
COCCN1CCc2ccc(Nc3ncc(Cl)c(Nc4ccc(N(C)C)cc4S(=O)(=O)N(C)C)n3)cc2CC1 [Example 852, 2-{5-Chloro-2-[3-(2-methoxy-ethyl)-2,3,4,5-tetrahydro-1H-benzo[d]azepin-7-ylamino]-pyrimidin-4-ylamino}-5-dimethylamino-N,N-dimethyl-benzenesulfonamide]	< 0.1 µM	1 to 10 µM
